The values below come from PubChem BioAssay (NCI).

Each structure is given as a SMILES string.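 48-hour exposure; five concentrations; linearly interpolated endpoints. Abbreviation: GI50, concentration required for 50% inhibition of growth. The concentration for full growth arrest is given as TGI.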

Common to all, as to assay: NCI tumour cell line growth inhibition, 48 h
In assay [1] the test system is RPMI-8226 leukemia.
In assay [2] the test system is T-47D breast.
Assay [3] deals with SK-MEL-28 melanoma.
Assay [4] concerns SK-OV-3 ovarian.
Assay [5] deals with SF-539 CNS.
Assay [6] deals with RXF 393 renal.
For assay [7], the system named is ACHN renal.
The subject of assay [8] is M14 melanoma.
Assay [9] relates to LOX IMVI melanoma.
Assay [10] relates to CCRF-CEM leukemia.

Take `c1cc(C2CCCCC2)ccc1-c1cnc2nonc2n1`: the GI50 in [1] is 0.4 µM; in assay [2] it was 0.631 µM; in assay [3], 1.36 µM; in assay [4] it was 2.21 µM; in assay [5], 0.548 µM; in assay [6] it was 0.514 µM. The GI50 in [7] is 1.14 µM; in assay [8], 0.499 µM; in assay [9], 0.527 µM; in assay [10], 0.408 µM. In addition, the TGI in assay [1] came to 2.79 µM; in assay [2], 2.78 µM; in assay [3], 2.99 µM; in assay [4] it was 5.98 µM; in assay [5] it was 1.87 µM; in [6], 1.56 µM. Also, the TGI in [7] is 2.39 µM; in assay [8], 2.16 µM; in assay [9], 1.74 µM; in assay [10], over 93.8 µM.
For `CC(=O)CCc1ccc(Oc2c3c(nc4ccccc24)OCC3)cc1`, the GI50 was 67.7 µM in assay [1]; 3.7 µM in [2]; 44.9 µM in assay [3]; 62.1 µM in assay [4]; 85.7 µM in assay [5]; 22.3 µM in assay [6]. Further, the GI50 in assay [7] was 53.9 µM; in assay [8], over 100 µM; in assay [9], over 100 µM; in assay [10], over 100 µM. Besides, the TGI was over 100 µM in assay [1]; 23.6 µM in assay [2]; over 100 µM in assay [3]; over 100 µM in [4]; over 100 µM in [5]; over 100 µM in assay [6]. In addition, the TGI in [7], in assay [8], in assay [9] and in [10] was over 100 µM each time.
On to `Cc1nc2sc(C(=O)Nc3ccccc3)c(N)c2cc1C(O)c1ccccc1` (centres undefined), for which the GI50 was 0.417 µM in assay [1]; 1.27 µM in assay [2]; 10.8 µM in assay [3]; 0.523 µM in assay [4]; 0.219 µM in assay [5]; 0.27 µM in [6]. The GI50 in [7] was 0.512 µM; in [8], 0.182 µM; in assay [9], 0.382 µM; in assay [10], 0.234 µM. For the same compound, the TGI in assay [1] was 11.7 µM; in assay [2], over 31.8 µM; in assay [3], over 100 µM; in assay [4] it was 38.5 µM; in [5], 0.638 µM; in assay [6] it was 1.88 µM. Further, the TGI in assay [7] is over 60.8 µM; in assay [8], 15.2 µM; in assay [9], over 41.1 µM.
As to `O=C1C(Cl)=C(Nc2cc(Cl)ccc2O)C(=O)N1Cc1ccccc1`, the GI50 in assay [1] was 11.9 µM; in [2], 27.6 µM; in assay [3], 16.1 µM; in assay [4] it was 19.7 µM; in assay [5], 20 µM; in assay [6], 14.1 µM. The GI50 in assay [7] was 17.2 µM; in assay [8], 17.1 µM; in assay [9], 16.7 µM; in assay [10], 12.5 µM. Besides, the TGI in assay [1] is 39.5 µM; in assay [2], over 100 µM; in assay [3], 34.2 µM; in assay [4] it was 43.3 µM; in assay [5], 36.3 µM; in assay [6] it was 30.3 µM. Further, the TGI worked out at 31.9 µM in assay [7], 33.3 µM in [8], 32.2 µM in assay [9] and 54.9 µM in assay [10].
Take `CCCCSc1nc(N)c2cn[nH]c2n1`: the GI50 was 17.1 µM in assay [1]; 8.28 µM in [2]; 20.3 µM in assay [3]; 37 µM in [4]; 18.3 µM in assay [5]; 9.25 µM in assay [6]. The GI50 is 24.8 µM in assay [7], 13.3 µM in assay [8], 29.9 µM in [9] and 23.6 µM in assay [10]. For the same compound, the TGI is 37.9 µM in assay [1]; 52.6 µM in assay [2]; 40.3 µM in assay [3]; over 92.3 µM in assay [4]; 39.1 µM in [5]; over 44 µM in assay [6]. In addition, the TGI in assay [7] is over 76.1 µM; in assay [8] it was 29.5 µM; in assay [9], over 88.6 µM; in assay [10], 68 µM.
Consider `COc1cc2c(NC3CCN(C(C)C)CC3)nc(C3CCCCC3)nc2cc1OCCCN1CCCC1`, for which the GI50 was 2.42 µM in assay [1]; 2.54 µM in assay [2]; 1.72 µM in assay [3]; 9.57 µM in [4]; 1.79 µM in assay [5]; 1.8 µM in assay [6]. The GI50 was 10.4 µM in assay [7], 1.71 µM in assay [8], 1.75 µM in assay [9] and 2.44 µM in assay [10]. The TGI in assay [1] is 7.75 µM; in [2], 7.08 µM; in assay [3], 3.24 µM; in [4] it was 23.4 µM; in [5], 3.48 µM; in [6], 4.27 µM. For the same compound, the TGI in [7] was determined as 23 µM; in assay [8], 3.26 µM; in [9] it was 3.95 µM; in [10], 6.88 µM.
`CN(C)C(=S)/N=c1\ssc(=S)n1Cc1ccco1`: the TGI in [1] is over 100 µM; in [2] it was over 100 µM; in assay [3], over 100 µM; in assay [4], over 100 µM; in [5], 7.66 µM; in [6], 8.22 µM. For the same compound, the TGI is over 100 µM in assay [7], over 100 µM in [8], over 100 µM in [9] and 42.3 µM in assay [10].
As for `C[C@H]1COCCN1c1nc(-c2cnc(N)cc2C(F)F)nc(N2CCOCC2)n1`, the GI50 is 0.134 µM in [1]; 0.0269 µM in assay [2]; 0.115 µM in assay [3]; 0.0614 µM in assay [4]; 0.235 µM in [5]; 0.129 µM in [6]. The GI50 is 0.207 µM in [7], 0.129 µM in assay [8], 0.152 µM in [9] and 0.285 µM in assay [10]. For the same compound, the TGI in [1] is 4.91 µM; in assay [2], 0.181 µM; in [3], 0.994 µM; in [4], 0.412 µM; in assay [5] it was 1.45 µM; in [6], 0.617 µM. The TGI in assay [7] was over 100 µM; in assay [8], 29.7 µM; in assay [9] it was 4.44 µM; in [10], over 50.3 µM.
Consider `CCN(CC)/[N+]([O-])=N/OCOC`, for which the TGI in assay [1], in assay [2], in assay [3], in [4], in assay [5] and in [6] was over 100 µM in each case. The TGI in assay [7], in assay [8], in assay [9] and in [10] was over 100 µM throughout.
